In patent US11849726B2, “Microbicidal composition” (Lanxess Corporation, priority 2016, dated 2023):

Columns and labels:
Assay type in all cases: cell-based
[1] = test system: Aspergillus brasiliensis ATCC #16404; assay: MIC / synergy index test in 96 well microtiter plates, mold; conditions: A. brasiliensis ATCC #16404, contact time 3 days, potato dextrose broth
Procedure: (§1) Phenoxyethanol and Dipropylene glycol phenyl ether were evaluated for synergy by determining the synergy index (S.I.) of the combination. Synergy index was calculated based on minimum inhibitory concentrations (MIC) of two antimicrobial compounds (A and B) alone and in combinations. The MIC test were run in accordance with the method described in U.S. Pat. No. 9,034,905. The tests organisms were Gram negative bacteria (Pseudomonas aeruginosa ATCC #15442), Gram positive bacteria (Staphylococcus aureus ATCC #6538), and yeast (Candida albicans ATCC #10231) and mold (Aspergillus brasiliensis ATCC #16404). Contact time for the bacteria was 24 and 48 hours, yeast was 48 and 72 hrs, and 3 and 7 days for mold. The test was carried out in 96 well microtiter plates.
(§2) SI is calculated as follows: Ca/CA+Cb/CB=Synergy Index (“SI”) Wherein: • CA=concentration of compound A in ppm, acting alone, which produced an end point (MIC of Compound A). • Ca=concentration of compound A in ppm, in the mixture, which produced an end point. • CB=concentration of compound B in ppm, acting alone, which produced an end point (MIC of Compound B). • Cb=concentration of compound B in ppm, in the mixture, which produced an end point.
(§3) When the sum of Ca/CA and Cb/CB is greater than one, antagonism is indicated.

[2] = test system: Staphylococcus aureus ATCC #6538; assay: MIC / synergy index test in 96 well microtiter plates, Gram positive bacteria; conditions: S. aureus ATCC #6538, contact time 24 hrs, 10% tryptic soy broth
Procedure: as §1, §2, §3

[3] = test system: Candida albicans ATCC #10231; assay: MIC / synergy index test in 96 well microtiter plates, yeast; conditions: C. albicans ATCC #10231, contact time 24 hrs, potato dextrose broth
Procedure: as §1, with “Contact time for the bacteria was 24 and 48 hours, yeast was 48 and 72 hrs, and 3 and 7 days for mold.” left out
as §2, §3

Structure (SMILES) | MIC of compound acting alone (CA / CB) [1] [ppm AI] | MIC of compound acting alone (CA / CB) [2] [ppm AI] | MIC of compound acting alone (CA / CB) [3] [ppm AI]
OCCOc1ccccc1 [Phenoxyethanol, 2-phenoxy-1-ethanol] | 3000 | 5000 | 5000
CC(CO)OCC(C)Oc1ccccc1 (stereo not drawn) [Dipropylene glycol phenyl ether] | 10000 | 19992 | 19992
